From publication PMC7351026, “Serum Half-Lives for Short- and Long-Chain Perfluoroalkyl Acids after Ceasing Exposure from Drinking Water Contaminated by Firefighting Foam” (Environmental Health Perspectives, 2020)
Values joined by “and” are separate entries in the source; they are usually repeats but may differ in a detail not shown here. Equal values may be shown once. Read-outs that look alike come from different tables or passages of the source.

How the values were obtained:
[1] = PFAS levels in urine samples of airport employees, specific-gravity adjusted (LC/MS/MS); assay type: in vivo, human; conditions: for Specific gravity adjusted urine level, median (range): second to fifth samplings, 17 airport employees
Protocol: Only one employee provided a single urine sample. […] All employees provided written informed consent.
The samples were thawed 1–2 h, then mixed by vortex shaker and manual turning. […] For the urine samples, 50μL urine was mixed with 25μL of methanol and 25μL of a 50% acetonitrile solution containing isotopically labeled internal standards (see Table S1). Then samples were shaken vigorously for 30 min and centrifuged at 3,000×g for 10 min at room temperature.
Aliquots of 20μL of the sample were analyzed using LC/MS/MS. […] The analysis was performed in negative ion mode. The ion source temperature was at 350°C.
(§1) Urinary PFAS concentrations were specific-gravity adjusted. The ratio of urine and serum concentration for each PFAS (urine/serum ratio) at each sampling was calculated based on PFAS concentrations in paired serum and urine samples from 17 employees. Then the personal average urine/serum ratio was calculated using the mean value of repeated samplings for each employee.

[2] = Population average serum elimination rate and half-life (linear mixed model, one compartment, first-order); conditions: for Reduction of half-life estimation after subtraction of background levels: sensitivity analysis vs model with original serum levels; for half-life: human, serum, oral, Half-life (95% CI)
Protocol: Serum PFAS concentrations were log-transformed. Time was calculated as the elapsed days between supply of clean bottled water and […] blood sampling. We assumed one compartment, first-order elimination kinetics. In this kinetic model, the body is considered as one homogeneous volume in which mixing is instantaneous and from which PFAS could be absorbed, transferred, and eliminated according to the rate of elimination that is proportional to the concentration of PFAS in the body. Two methods were used to estimate serum elimination rate constant (k) and half-life for each PFAS:
Briefly, in the linear mixed model In Cij=αi+tijβ+Xiβ′+εij, Cij is the serum concentration of PFAS for individual i at sampling round j; αi is the subject-specific intercept (random intercept); tij is the time; β is the average slope; Xi is a vector of fixed covariates for individual i; β′ stands for the fixed effect coefficients; and εij is the random error term. We modified the model by excluding the subject-specific slope (random slope) due to a failure to converge after inclusion, which may be due to the limited number of study subjects. The negative value of the average slope ( −β ) is the population average k, and average half-life is calculated as ln2/k .
In the linear mixed model, we included only age and sex as covariates. We based covariate selection on factors that could conceivably confound the PFAS half-life estimation. Working task, duration of employment, number of glasses of water per day, blood donation, and pregnancy before mitigation of PFAS exposure from drinking water can influence the initial serum levels but would not be expected to influence the PFAS half-life.
A sensitivity analysis was performed using the same linear mixed model but with Cij as the serum levels after subtracting general background levels (using the median levels obtained from the nonexposed reference population). If the serum PFAS levels after subtraction were lower than the half of the background levels, they were replaced with half of the background levels.

Serum/water ratio = assay type: in vivo, human; conditions: median serum level of first samples (26 employees) divided by airport drinking-water level
Protocol: The ratio of serum and water concentration for each PFAS (serum/water ratio) was calculated based on median serum level in the first serum sample obtained from all 26 airport employees divided by the drinking-water concentration. This ratio is an indicator of PFAS accumulation in body.

[3] = Urine/serum ratio in paired samples; assay type: in vivo, human; conditions: mean of four paired samplings per subject, 17 airport employees
Protocol: as §1

[4] = Background serum PFAS levels in reference population from Karlshamn; assay type: in vivo, human; conditions: reference group from Karlshamn without PFAS contamination in drinking water, N=58, sampled 2016
Text: For comparison with Swedish general background PFAS serum levels, we referred to the PFAS levels observed in a reference population from Karlshamn, a municipality in southern Sweden without PFAS contamination in the municipal drinking water. In 2016, 226 individuals were sampled. Fifty-nine individuals were randomly selected for analyzing other short-chain PFAS than the legacy ones, using the same modified method as for the airport employees. Fifty-eight individuals within the same age range as the airport employees (i.e., >22 years of age ) were included in the comparison. For a detailed description of this population see Li et al. ([2018]).

[5] = cited from earlier work
[6] = 2nd sampling (October 2018), count 17
[7] = 3rd sampling (November, 2018), count 16
[8] = 4th sampling (December 2018), count 14
[9] = 5th sampling (January 2019), count 12
[10] = population average, model with original serum levels, age and sex as covariates
[11] = population average, model with serum levels after subtraction of background exposure (sensitivity analysis)
[12] = general Swedish population (Ronneby, 106 Swedes) with high exposure through drinking water, 2 y follow-up from 6 months after clean water, ref Li et al. 2018

| SMILES | Specific gravity adjusted urinary level, 25 percentile [1, 6] | Specific gravity adjusted urinary level, 75 percentile [1, 6] | Specific gravity adjusted urinary level, Max [1, 6] | Specific gravity adjusted urinary level, Median [1, 6] | Specific gravity adjusted urinary level, Min [1, 6] | Specific gravity adjusted urinary level, 25 percentile [1, 7] | Specific gravity adjusted urinary level, 75 percentile [1, 7] | Specific gravity adjusted urinary level, Max [1, 7] | Specific gravity adjusted urinary level, Median [1, 7] | Specific gravity adjusted urinary level, Min [1, 7] | Specific gravity adjusted urinary level, 25 percentile [1, 8] | Specific gravity adjusted urinary level, 75 percentile [1, 8] | Specific gravity adjusted urinary level, Max [1, 8] | Specific gravity adjusted urinary level, Median [1, 8] | Specific gravity adjusted urinary level, Min [1, 8] | Specific gravity adjusted urinary level, 25 percentile [1, 9] | Specific gravity adjusted urinary level, 75 percentile [1, 9] | Specific gravity adjusted urinary level, Max [1, 9] | Specific gravity adjusted urinary level, Median [1, 9] | Specific gravity adjusted urinary level, Min [1, 9] | other results |
| --- | --- | --- | --- | --- | --- | --- | --- | --- | --- | --- | --- | --- | --- | --- | --- | --- | --- | --- | --- | --- | --- |
| O=S(=O)(O)C(F)(F)C(F)(F)C(F)(F)C(F)(F)C(F)(F)C(F)(F)C(F)(F)C(F)(F)F [L-PFOS, linear perfluorooctane sulfonic acid] | < LOD | 0.01 ng/mL | 0.08 ng/mL | < LOD | < LOD | < LOD | 0.02 ng/mL | 0.03 ng/mL | 0.01 ng/mL | < LOD | < LOD | 0.02 ng/mL | 0.05 ng/mL | < LOD | < LOD | < LOD | 0.01 ng/mL | 0.04 ng/mL | < LOD | < LOD | Constant elimination rate (95% CI) [2, 10]: 0.24 (0.07, 0.4) yearly; Half-life (95% CI) [2, 10]: 2.91 (1.71, 9.63) year; Constant elimination rate (95% CI) [2, 11]: 0.41 (0.11, 0.71) yearly; Half-life (95% CI) [2, 11]: 1.69 (0.98, 6.04) year; Reduction of half-life estimation after subtraction of background levels [2]: 42%; Serum/water ratio (Serum/water ratio): 153; Personal average urine/serum ratio, median (range) [3]: 0.00092 (0.000035–0.0056); PFAS serum level, median (range) [4]: 3.0 (0.30–9.8) ng/mL; Average half-life [5, 12]: 3.4 y |
| O=S(=O)(O)C(F)(F)C(F)(F)C(F)(F)C(F)(F)C(F)(F)C(F)(F)F [PFHxS, perfluorohexane sulfonic acid] | 0.06 ng/mL | 0.13 ng/mL | 0.28 ng/mL | 0.09 ng/mL | 0.03 ng/mL | 0.05 ng/mL | 0.13 ng/mL | 0.26 ng/mL | 0.07 ng/mL | 0.03 ng/mL | 0.05 ng/mL | 0.17 ng/mL | 0.73 ng/mL | 0.12 ng/mL | 0.04 ng/mL | 0.07 ng/mL | 0.11 ng/mL | 0.31 ng/mL | 0.08 ng/mL | 0.06 ng/mL | Specific gravity adjusted urine level, median (range) [1]: 0.092 (0.025–0.73) ng/mL; half-life [2, 10]: 1040 days; half-life [2, 11]: 1040 days; Constant elimination rate (95% CI) [2, 10]: 0.24 (0.16, 0.33) yearly; Constant elimination rate (95% CI) [2, 11]: 0.24 (0.16, 0.33) yearly; Serum/water ratio (Serum/water ratio): 107; Personal average urine/serum ratio, median (range) [3]: 0.00093 (0.0006–0.0018); PFAS serum level, median (range) [4]: 0.59 ( <LOD –1.2) ng/mL; Average half-life [5, 12]: 5.3 y |
| O=C(O)C(F)(F)C(F)(F)C(F)(F)C(F)(F)C(F)(F)C(F)(F)C(F)(F)F [PFOA, perfluorooctanoic acid] | 0.02 ng/mL | 0.04 ng/mL | 0.07 ng/mL | 0.03 ng/mL | 0.01 ng/mL | 0.02 ng/mL | 0.04 ng/mL | 0.07 ng/mL | 0.03 ng/mL | 0.01 ng/mL | 0.02 ng/mL | 0.05 ng/mL | 0.13 ng/mL | 0.04 ng/mL | 0.01 ng/mL | 0.03 ng/mL | 0.04 ng/mL | 0.07 ng/mL | 0.03 ng/mL | 0.02 ng/mL | Specific gravity adjusted urine level, median (range) [1]: 0.031 (0.010–0.13) ng/mL; half-life [2, 10]: 646 days; half-life [2, 11]: 541 days; Average serum half-life ([2]; population average, linear mixed model with original serum levels, 17 airport employees after end of drinking-water exposure): 1.77 y; Constant elimination rate (95% CI) [2, 10]: 0.39 (0.3, 0.49) yearly; Constant elimination rate (95% CI) [2, 11]: 0.47 (0.35, 0.58) yearly; Reduction of half-life estimation after subtraction of background levels [2]: 16%; Serum/water ratio (Serum/water ratio): 30.3; Personal average urine/serum ratio, median (range) [3]: 0.0032 and 0.0032 (0.00066–0.0067); concentration at 2016 calendar year of sampling ([4]; human, serum, read-out: PFAS serum level, median (range)): 1.5 ng/mL; Average half-life ([5]; 26 retired fluorochemical production workers, 5-y follow-up, ref Olsen et al. 2007): 3.8 y; half-life ([5]; 138 Germans, 2-y follow-up, ref Brede et al. 2010): 3.3 y; half-life ([5]; 200 Americans, 1-y follow-up, ref Bartell et al. 2010): 2.3 y; Average half-life [5, 12]: 2.7 y |
